In PMC7044277 (Nature Communications, 2020):
Several values for one entry are separate records, joined by “and”; a condition that tells them apart may be missing. Equal values may be shown once.

How the values were obtained:
Assay type in all cases: cell-based
Design in all cases: GPCRome screening signal at PTGIR / GPCRome screening signal at PTH1R / GPCRome screening signal at PTH2R / GPCRome screening signal at QRFP / GPCRome screening signal at RXFP2 / GPCRome screening signal at RXFP3 / GPCRome screening signal at RXFP4 / GPCRome screening signal at S1PR2 / GPCRome screening signal at S1PR3 / GPCRome screening signal at S1PR4 / GPCRome screening signal at S1PR5 / GPCRome screening signal at SCTR / GPCRome screening signal at SSTR2 / GPCRome screening signal at SSSTR / GPCRome screening signal at SSTR4 / GPCRome screening signal at SSTR5 / GPCRome screening signal at SUCNR1 / GPCRome screening signal at TA1 / GPCRome screening signal at TAAR2 / GPCRome screening signal at TAAR5 / GPCRome screening signal at TAAR6 / GPCRome screening signal at TAAR8 / GPCRome screening signal at TACR1 / GPCRome screening signal at TACR2 / GPCRome screening signal at TACR3 / GPCRome screening signal at TBXA2R / GPCRome screening signal at TSHR / GPCRome screening signal at UTS2R / GPCRome screening signal at VIPR2 / GPCRome screening signal at GPR68 no V2 Tail / GPCRome screening signal at GRM2 / GPCRome screening signal at GRM3: reference not given here
320 non-olfactory GPCRs [1] = molecular target: 320 non-olfactory GPCRs (Homo sapiens, UniProt P47872); details: receptor SCTR
320 non-olfactory GPCRs (Homo sapiens, UniProt P47872), sequence (P47872 23-440): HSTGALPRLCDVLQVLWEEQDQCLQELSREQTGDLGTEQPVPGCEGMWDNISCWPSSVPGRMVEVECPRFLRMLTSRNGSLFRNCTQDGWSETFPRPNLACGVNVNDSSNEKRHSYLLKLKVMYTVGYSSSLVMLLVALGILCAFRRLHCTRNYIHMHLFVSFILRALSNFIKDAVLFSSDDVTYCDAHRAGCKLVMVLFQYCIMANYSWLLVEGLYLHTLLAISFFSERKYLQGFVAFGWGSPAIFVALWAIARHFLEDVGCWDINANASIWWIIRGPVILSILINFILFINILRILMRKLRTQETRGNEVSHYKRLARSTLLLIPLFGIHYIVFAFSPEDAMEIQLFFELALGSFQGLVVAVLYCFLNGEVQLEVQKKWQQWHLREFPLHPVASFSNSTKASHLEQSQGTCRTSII

320 non-olfactory GPCRs [2] = molecular target: T1, 320 non-olfactory GPCRs (Homo sapiens, UniProt Q96RJ0); details: receptor TA1
T1 construct: expressed in transfected cells; host or cells: HTLA cells
T1 sequence (Q96RJ0 whole entry): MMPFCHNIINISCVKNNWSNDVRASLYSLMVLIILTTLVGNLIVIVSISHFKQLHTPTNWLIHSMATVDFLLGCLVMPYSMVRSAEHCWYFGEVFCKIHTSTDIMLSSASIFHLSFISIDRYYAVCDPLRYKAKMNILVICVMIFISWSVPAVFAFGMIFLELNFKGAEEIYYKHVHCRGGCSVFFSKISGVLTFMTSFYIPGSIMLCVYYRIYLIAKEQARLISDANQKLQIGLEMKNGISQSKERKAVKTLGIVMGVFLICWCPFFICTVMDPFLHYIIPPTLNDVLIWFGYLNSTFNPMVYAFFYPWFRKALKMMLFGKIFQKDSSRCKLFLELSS

320 non-olfactory GPCRs [3] = molecular target: 320 non-olfactory GPCRs (Homo sapiens, UniProt Q9H228); details: receptor S1PR5
320 non-olfactory GPCRs (Homo sapiens, UniProt Q9H228), sequence (Q9H228 whole entry): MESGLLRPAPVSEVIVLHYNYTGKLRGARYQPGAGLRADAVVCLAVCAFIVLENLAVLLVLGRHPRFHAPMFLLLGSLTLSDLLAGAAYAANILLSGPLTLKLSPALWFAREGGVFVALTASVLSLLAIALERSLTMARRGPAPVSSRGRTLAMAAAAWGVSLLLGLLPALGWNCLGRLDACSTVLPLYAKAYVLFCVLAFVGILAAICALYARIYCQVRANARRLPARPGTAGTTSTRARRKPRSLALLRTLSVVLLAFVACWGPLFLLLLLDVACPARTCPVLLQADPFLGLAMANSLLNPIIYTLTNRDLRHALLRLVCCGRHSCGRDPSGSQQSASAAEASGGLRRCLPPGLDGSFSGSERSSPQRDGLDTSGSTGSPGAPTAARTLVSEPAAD

320 non-olfactory GPCRs [4] = molecular target: T2, 320 non-olfactory GPCRs (Homo sapiens, UniProt Q9HBX9); details: receptor RXFP1
T2 construct: expressed in transfected cells; host or cells: HTLA cells
T2 sequence (Q9HBX9 whole entry): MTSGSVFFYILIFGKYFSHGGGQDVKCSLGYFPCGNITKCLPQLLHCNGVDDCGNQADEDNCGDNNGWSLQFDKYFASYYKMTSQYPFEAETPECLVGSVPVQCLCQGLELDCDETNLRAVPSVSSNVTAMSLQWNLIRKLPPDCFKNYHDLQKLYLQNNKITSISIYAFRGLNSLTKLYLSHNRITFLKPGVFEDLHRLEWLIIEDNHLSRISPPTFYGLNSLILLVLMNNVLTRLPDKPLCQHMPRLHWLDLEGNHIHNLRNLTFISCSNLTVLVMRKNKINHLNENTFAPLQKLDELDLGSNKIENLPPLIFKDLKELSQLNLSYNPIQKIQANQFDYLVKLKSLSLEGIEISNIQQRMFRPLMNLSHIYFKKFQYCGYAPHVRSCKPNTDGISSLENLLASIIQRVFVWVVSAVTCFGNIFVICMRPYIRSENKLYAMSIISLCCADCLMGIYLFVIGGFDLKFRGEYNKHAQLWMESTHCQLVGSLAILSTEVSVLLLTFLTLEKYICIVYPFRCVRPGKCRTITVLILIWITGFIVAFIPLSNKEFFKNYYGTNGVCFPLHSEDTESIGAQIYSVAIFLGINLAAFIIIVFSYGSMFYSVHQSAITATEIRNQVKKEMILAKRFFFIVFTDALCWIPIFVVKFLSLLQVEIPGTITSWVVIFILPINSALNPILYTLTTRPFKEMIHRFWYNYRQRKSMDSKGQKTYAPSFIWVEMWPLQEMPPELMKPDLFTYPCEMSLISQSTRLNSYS

[5] = Fig_5f, single replicate values
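Wherever GPCRome agonism screen response is given: fold over basal response of each receptor without drug.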

Row | GPCRome screening signal at SCTR (320 non-olfactory GPCRs [1]; [5]) | GPCRome screening signal at TA1 (320 non-olfactory GPCRs [2]; [5]) | GPCRome screening signal at S1PR5 (320 non-olfactory GPCRs [3]; [5]) | GPCRome screening signal at RXFP1 (320 non-olfactory GPCRs [4]; [5]) | SMILES | GPCRome agonism screen response (320 non-olfactory GPCRs [1]; replicate values, Fig_4g) | GPCRome agonism screen response (320 non-olfactory GPCRs [2]; replicate values, Fig_4g) | GPCRome agonism screen response (320 non-olfactory GPCRs [3]; replicate values, Fig_4g) | GPCRome agonism screen response (320 non-olfactory GPCRs [4]; replicate values, Fig_4g)
1 | – | – | – | – | CCOc1cccc2cc(C(C)NCC3(O)CCCCC3)oc12 (centres unmarked) [O4LE6] | 0.9841 and 0.1649 and 1.315 and 1.208 | 0.6778 and 0.9948 and 0.7841 and 0.8752 | 0.6595 and 0.787 and 0.6694 and 0.8628 | 1.294 and 0.8675 and 1.5976 and 1.234
2 | 1.0412 and 0.8528 and 0.88 and 1.015 | 0.8481 and 0.8735 and 0.8675 and 0.7534 | 0.8048 and 0.6191 and 0.7126 and 0.9361 | 1.526 and 1.245 and 1.665 and 0.7058 | CCOc1ccccc1CCC(C)NCC1(O)CCCCC1.Cl (racemic) [Fig_5f] | – | – | – | –
